# In PMC8698070, “The Zoonotic Helminth Parasite Fasciola hepatica: Virulence-Associated Cathepsin B and Cathepsin L Cysteine Peptidases Secreted by Infective Newly Excysted Juveniles (NEJ)” (Animals : an Open Access Journal from MDPI, 2021):
# Several values for one entry are separate records, joined by “and”; a condition that tells them apart may be missing. Equal values may be shown once. Entries after “also recorded” stand apart in the source; their conditions may differ. Read-outs that look alike come from different tables or passages of the source. Where a SMILES comes first, the peptide text is derived from it. The star is where a group is joined. Cbz = O=C(OCc1ccccc1)*
# Key:
# FhCB1 = FhCB1 (Fasciola hepatica, UniProt Q8I7B2); assay: Inhibition of recombinant FhCB1, fluorogenic substrate assay (Z-Phe-Arg-AMC); type: biochemical; conditions: for inhibition of enzymatic activity (inhibitor screen, Figure 5), in words: FhCB1, inhibitor 1000-15 nM; for Ki: read-out: inhibition constant Ki
# Chain of FhCB1 (Q8I7B2 entry or part of it): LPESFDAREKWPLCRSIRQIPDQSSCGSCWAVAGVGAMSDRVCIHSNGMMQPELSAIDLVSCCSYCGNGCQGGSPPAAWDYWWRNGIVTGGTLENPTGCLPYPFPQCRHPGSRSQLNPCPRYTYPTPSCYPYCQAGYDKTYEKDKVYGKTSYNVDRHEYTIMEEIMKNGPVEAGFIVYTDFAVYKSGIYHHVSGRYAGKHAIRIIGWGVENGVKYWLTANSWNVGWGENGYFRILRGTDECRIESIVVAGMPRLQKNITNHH
# Procedure: (§1) Recombinant peptidases were assayed for enzymatic activity using a fluorogenic substrate assay. The reactions were carried out in 0.1 M C-P buffer (pH 7.0) with 1 mM DTT in a final volume of 200 μL, in a black 96-well plate. Each well contained activated enzyme (140 nM) and 20 μM fluorogenic substrate, which was added to start the reaction. All assays were run in triplicate at 37 °C for 1 h. Enzyme activity was monitored by rate of hydrolysis and subsequent release of the AMC group on the synthetic peptide substrates at an excitation wavelength of 370 nm and an emission wavelength of 460 nm, as relative fluorescence units (RFU), in a PolarStar Omega Spectrophotometer (BMG Labtech, Aylesbury, UK). All data were plotted and analysed using MARS Data Analysis Software (BMG Labtech, UK) and GraphPad Prism version 5.
# (§2) Commercially available inhibitors of cathepsin B (Ca074 and Ca074-OMe), cathepsin L (L, L1, LII, LIII and LIV), cathepsin K (KI, KII and KIII) and cathepsin S were purchased from Merck Millipore (Cork, Ireland; Supplementary Figure S2). The broad-spectrum papain peptidase inhibitor Z-Phe-Ala-FMK was purchased from Enzo Life Sciences (Exeter, UK). These were used to determine and compare the inhibition constant (Ki) against the recombinant FhCBs and FhCL3. All the assays were carried out in 0.1 M C-P buffer with 1 mM DTT and 0.01% Brij® L23, at the pH corresponding to the optimum for each enzyme in a total 200 µL reaction volume. The peptidases (140 nM) were pre-incubated with the inhibitor (1000-15 nM) at room temperature, for 30 min, before starting the reaction by the addition of the substrate that was optimal for each enzyme (FhCB1, Z-Phe-Arg-AMC; FhCB2 and FhCB3, Z-Val-Ile-Arg-AMC; FhCL3, Z-Gly-Pro-Arg-AMC). Substrate concentrations were equal to KM (shown in Table 1) and the apparent inhibition constant (Ki^app) values were calculated with GraphPad Prism 5, using the Morrison equation for tight binding inhibition (Equation (3)). For competitive inhibitors, such as those used in this study, Ki^app was fitted to a second equation (Equation (4)) from which Ki can be determined. (3) vi/vo=1−([E])+[I]+Kiapp)−([E]+[I]+Kiapp)^2−4[E][I] /2[E] (4) Kiapp=Ki(1+[S]/KM)
# FhCB2 = FhCB2 (Fasciola hepatica, UniProt A5X493); assay: Inhibition of recombinant FhCB2, fluorogenic substrate assay (Z-Val-Ile-Arg-AMC); type: biochemical; conditions: for inhibition of enzymatic activity (inhibitor screen, Figure 5), in words: FhCB2, inhibitor 1000-15 nM
# Chain of FhCB2 (A5X493 entry or part of it): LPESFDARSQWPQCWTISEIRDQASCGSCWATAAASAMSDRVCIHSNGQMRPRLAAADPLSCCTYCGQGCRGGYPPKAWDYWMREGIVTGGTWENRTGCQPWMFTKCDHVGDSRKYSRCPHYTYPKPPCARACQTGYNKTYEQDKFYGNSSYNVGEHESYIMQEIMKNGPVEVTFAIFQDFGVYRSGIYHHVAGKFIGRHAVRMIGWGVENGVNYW
# Procedure: as §1, §2
# FhCB3 = FhCB3 (Fasciola hepatica, UniProt A7UNB2); assay: Inhibition of recombinant FhCB3, fluorogenic substrate assay (Z-Val-Ile-Arg-AMC); type: biochemical; conditions: for inhibition of enzymatic activity (inhibitor screen, Figure 5), in words: FhCB3, inhibitor 1000-15 nM
# Chain of FhCB3 (A7UNB2 entry or part of it): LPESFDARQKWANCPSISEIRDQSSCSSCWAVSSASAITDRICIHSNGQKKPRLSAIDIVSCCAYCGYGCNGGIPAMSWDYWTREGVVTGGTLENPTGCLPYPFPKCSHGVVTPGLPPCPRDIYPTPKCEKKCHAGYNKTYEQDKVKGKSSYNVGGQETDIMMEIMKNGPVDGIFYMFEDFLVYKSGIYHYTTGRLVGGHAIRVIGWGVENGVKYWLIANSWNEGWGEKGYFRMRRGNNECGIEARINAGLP
# Procedure: as §1, §2
# FhCL3 = FhCL3 (Fasciola hepatica, UniProt A0A879R2T5); assay: Inhibition of recombinant FhCL3, fluorogenic substrate assay (Z-Gly-Pro-Arg-AMC); type: biochemical; conditions: for inhibition of enzymatic activity (inhibitor screen, Figure 5), in words: FhCL3, inhibitor 1000-15 nM
# Chain of FhCL3 (A0A879R2T5 entry or part of it): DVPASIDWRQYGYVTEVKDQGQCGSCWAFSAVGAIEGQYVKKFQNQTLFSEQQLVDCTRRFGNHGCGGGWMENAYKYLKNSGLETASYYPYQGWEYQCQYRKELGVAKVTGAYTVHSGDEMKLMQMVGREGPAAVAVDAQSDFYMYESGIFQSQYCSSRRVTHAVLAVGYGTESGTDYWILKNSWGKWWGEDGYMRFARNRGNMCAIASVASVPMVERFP
# Procedure: as §1, §2
# human cathepsin B (HsCB) = target: T1, human cathepsin B (HsCB) (Homo sapiens, UniProt P07858); assay: Inhibitor screen against human cathepsin B control; type: biochemical
# T1 construct: purchased Sigma-Aldrich; host or cells: human embryonic kidney cells
# Description: (§3) The Schistosoma mansoni cathepsin B1 (SmCB1) was also produced in our laboratory using P. pastoris as described above. The human cathepsin B (HsCB) and cathepsin L1 (HsCL1) were produced in human embryonic kidney cells (Sigma-Aldrich).
# as §2, with “All the assays were carried out in 0.1 M C-P buffer with 1 mM DTT and 0.01% Brij® L23, at the pH corresponding to the optimum for each enzyme in a total 200 µL reaction volume. The peptidases (140 nM) were pre-incubated with the inhibitor (1000-15 nM) at room temperature, for 30 min, before starting the reaction by the addition of the substrate that was optimal for each enzyme (FhCB1, Z-Phe-Arg-AMC; FhCB2 and FhCB3, Z-Val-Ile-Arg-AMC; FhCL3, Z-Gly-Pro-Arg-AMC).” left out
# The broad-range cysteine peptidase inhibitor Z-Phe-Ala-FMK was also included (Figure 5).
# Figure 5 Profile of inhibition of FhCB1, FhCB2, FhCB3 and FhCL3. Commercially available inhibitors of cathepsin B (Ca074 and Ca07a-OMe), cathepsin L (L, L1, LII, LIII and LIV), cathepsin K (KI, KII and KIII), cathepsin S and the broad-spectrum papain peptidase inhibitor Z-Phe-Ala-FMK (A–L) were used to determine and compare the inhibition constant against recombinants FhCB1, FhCB2, FhCB3, FhCL3, HsCB and HsCL1. […] Error bars indicate standard deviation of three replicates.
# cathepsin L1 (HsCL1) = target: T2, cathepsin L1 (HsCL1) (Homo sapiens, UniProt P07711); assay: Inhibitor screen against human cathepsin L1 control; type: biochemical
# T2 construct: purchased Sigma-Aldrich; host or cells: human embryonic kidney cells
# T2 sequence (P07711 114-333): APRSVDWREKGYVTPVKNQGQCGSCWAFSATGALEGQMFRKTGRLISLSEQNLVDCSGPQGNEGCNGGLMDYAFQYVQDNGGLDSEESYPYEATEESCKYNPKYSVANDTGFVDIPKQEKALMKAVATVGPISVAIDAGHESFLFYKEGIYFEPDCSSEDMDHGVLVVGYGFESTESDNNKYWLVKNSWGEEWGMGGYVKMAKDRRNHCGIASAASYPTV
# Description: as §3, §2
# A panel of 12 commercially available cysteine peptidase inhibitors that preferentially target mammalian cathepsin B (Ca074 and Ca074-OMe), cathepsin L (L, L1, LII, LIII and LIV) cathepsin S (S) and cathepsin K (KI, KII and KIII) were screened against the FhCBs, FhCL3 and, as controls, HsCB and HsCL1. The broad-range cysteine peptidase inhibitor Z-Phe-Ala-FMK was also included (Figure 5).
# Figure 5 Profile of inhibition of FhCB1, FhCB2, FhCB3 and FhCL3. Commercially available inhibitors of cathepsin B (Ca074 and Ca07a-OMe), cathepsin L (L, L1, LII, LIII and LIV), cathepsin K (KI, KII and KIII), cathepsin S and the broad-spectrum papain peptidase inhibitor Z-Phe-Ala-FMK (A–L) were used to determine and compare the inhibition constant against recombinants FhCB1, FhCB2, FhCB3, FhCL3, HsCB and HsCL1. Activity is represented as the percentage of enzymatic activity observed by hydrolysis of a fluorogenic quenched peptide substrate following a pre-incubation with inhibitor in relation to the activity of the enzyme alone. Error bars indicate standard deviation of three replicates.
# NEJ = system: NEJ; set-up: method as in PMID 19401154; conditions: concentration of 6.25 μM; cited from earlier work
# [1] = system: F. hepatica metacercariae; assay: Excystment of F. hepatica metacercariae in vitro; type: cell-based, Fasciola hepatica; conditions: 100 μM inhibitor, 3 h, 37 °C, 50 metacercariae per well; vs DMSO control
# Procedure: F. hepatica metacercariae (Italian isolate; Ridgeway Research, Saint Briavels, UK) were prepared for excystment as previously described by Robinson et al.. To verify the effect of the cathepsin peptidase inhibitors on the ability of the metacercariae to excyst, 50 metacercariae per well were placed into a 24-well plate and 1 mL of excystment medium (0.6% sodium bicarbonate, 0.45% sodium chloride, 0.4% sodium tauroglycocholate, 0.025 N HCl and 0.4% L-cysteine) supplemented with 100 μM of the inhibitor was added to the well. As controls, we used PBS and dimethylsulfoxide (DMSO, 1:100; Sigma-Aldrich) alone. The plate was then incubated at 37 °C with 5% CO2, for 3 h to allow metacercarial excystment. Using a light microscope (25× magnification), the number of excysted NEJ was determined.
# [2] = system: F. hepatica metacercariae; set-up: method as in PMID 19443417; conditions: final concentration of 1 mM; cited from earlier work
# F. hepatica NEJ = assay: Viability of NEJ in culture; type: cell-based, Fasciola hepatica; conditions: 100 μM inhibitor, 24 h culture, compared to the DMSO group
# Procedure: NEJ were washed three times in a culturing medium (RPMI-1640 medium supplemented with 30 mM HEPES, 0.1% glucose, 10% foetal bovine serum and 50 μg/mL of gentamicin) and their viability assessed by culturing the parasites in 1 mL of culture medium containing 100 μM of the inhibitor at 5% CO2 at 37 °C for 24 h. After incubation, the number of moribund/dead parasites were counted using a light microscope (25× magnification). The criteria used to assess the NEJ viability were loss of motility and peristaltic movement and any obvious damage to the tegument or internal structures, as previously standardized by. The experiments were performed in triplicate. The average of the replicate experimental data was subjected to a two-way ANOVA comparing the values obtained with each inhibitor against the mean of the DMSO control group, with minimum 95% confidence intervals. All the statistical analyses were performed using GraphPad Prism 5.
# human cathepsins S = target: human cathepsins S; set-up: method as in PMID 10964677; conditions: human cathepsin S; cited from earlier work
# human cathepsins B = target: human cathepsins B; set-up: method as in PMID 10964677; conditions: human cathepsin B; cited from earlier work
# [3] = recombinant FhCB1 140 nM, 30 min pre-incubation, substrate Z-Phe-Arg-AMC at KM, optimum pH, ± SEM
# [4] = inhibition constant Ki, recombinant FhCL3 140 nM, 30 min pre-incubation, substrate Z-Gly-Pro-Arg-AMC at KM, optimum pH, ± SEM
smiles,measurement,setting,value
O=CC(Cc1ccc(O)cc1)NC(=O)C(Cc1ccccc1)NC(=O)OCc1ccccc1 (stereo not drawn) [LII] (Cbz-Phe-Tyr-aldehyde; configuration not given here),"inhibition of enzymatic activity (inhibitor screen, Figure 5), in words",FhCB1,most effective at reducing the enzymatic activity
same,"inhibition of enzymatic activity (inhibitor screen, Figure 5), in words",FhCB2,most effective at reducing the enzymatic activity
same,Ki,"FhCB2; recombinant FhCB2 140 nM, 30 min pre-incubation, substrate Z-Val-Ile-Arg-AMC at KM, optimum pH, ± SEM, read-out: inhibition constant Ki",1840 ± 77 nM
same,"inhibition of enzymatic activity (inhibitor screen, Figure 5), in words",FhCB3,most effective at reducing the enzymatic activity
same,Ki,"FhCB3; recombinant FhCB3 140 nM, 30 min pre-incubation, substrate Z-Val-Ile-Arg-AMC at KM, optimum pH, ± SEM, read-out: inhibition constant Ki",211 ± 34.8 nM
same,"inhibition of enzymatic activity (inhibitor screen, Figure 5), in words",FhCL3,most effective at reducing the enzymatic activity
same,Ki,"FhCL3; recombinant FhCL3 140 nM, 30 min pre-incubation, substrate Z-Gly-Pro-Arg-AMC at KM, optimum pH, ± SEM, read-out: inhibition constant Ki",8 ± 0.6 nM
same,"inhibition of enzymatic activity (inhibitor screen, Figure 5), in words",human cathepsin B (HsCB),inhibited
same,"inhibition of enzymatic activity (inhibitor screen, Figure 5), in words",cathepsin L1 (HsCL1),specificity for HsCL1 over HsCBs; also recorded: inhibited
CCCNC(=O)[C@H]1O[C@@H]1C(=O)N[C@H](C(=O)N1CCC[C@H]1C(=O)OC)[C@@H](C)CC [Ca074ME],"inhibition of enzymatic activity (inhibitor screen, Figure 5), in words",FhCB1; listed as Ca074-OMe,poor inhibitors; also recorded: very poor inhibitors
same,inhibition constant Ki,FhCB1; [3],poor inhibition
same,Ki,FhCB1; [3],5500 ± 1190 nM
same,"inhibition of enzymatic activity (inhibitor screen, Figure 5), in words",FhCB2; listed as Ca074-OMe,poor inhibitors; also recorded: very poor inhibitors
same,inhibition constant Ki,"FhCB2; recombinant FhCB2 140 nM, 30 min pre-incubation, substrate Z-Val-Ile-Arg-AMC at KM, optimum pH, ± SEM",poor inhibition
same,Ki,FhCB3,785 ± 130 nM
same,"inhibition of enzymatic activity (inhibitor screen, Figure 5), in words",FhCB3; listed as Ca074-OMe,poor inhibitors; also recorded: very poor inhibitors
same,inhibition constant Ki,"FhCB3; recombinant FhCB3 140 nM, 30 min pre-incubation, substrate Z-Val-Ile-Arg-AMC at KM, optimum pH, ± SEM",poor inhibition
same,"inhibition of enzymatic activity (inhibitor screen, Figure 5), in words",FhCL3,poor inhibitors
same,Ki,FhCL3; [4],249 ± 35.5 nM
same,inhibition constant Ki,"FhCL3; recombinant FhCL3 140 nM, 30 min pre-incubation, substrate Z-Gly-Pro-Arg-AMC at KM, optimum pH, ± SEM",poor inhibition
same,"inhibition of enzymatic activity (inhibitor screen, Figure 5), in words",human cathepsin B (HsCB),selective for HsCB compared to HsCL1
same,effect on cultured NEJ,NEJ,sub-lethal effect
C[C@H](NC(=O)[C@H](Cc1ccccc1)NC(=O)OCc1ccccc1)C(=O)CF [Z-Phe-Ala-FMK],Ki,FhCB1; [3],< 15 nM and 3 nM
same,Ki,FhCB3,246 ± 55.7 nM
same,Ki,FhCL3; [4],15 ± 5.95 nM
same,reduction of metacercariae excystment,[1],more than 50%
same,effect on metacercariae excystment,[2],completely prevented
CC(C)C[C@H](NC(=O)[C@H](Cc1ccccc1)NC(=O)OCc1ccccc1)C(=O)C=O [S],Ki,FhCB1; [3],14 ± 2.42 nM
same,Ki,FhCB3,696 ± 94.8 nM
same,Ki,FhCL3; [4],35 ± 2.4 nM
same,reduction of NEJ viability (survival),F. hepatica NEJ,~ 55%
same,Ki,human cathepsins S,0.185 nM
same,Ki,human cathepsins B,76 nM
